Data on seven test systems can be found in the supplement of paper PMC6045584.

± gives the standard deviation of the averaged measurements.

Compound in assay [1]: CCc1cc(Nc2nccc(-c3c(-c4ccc(OC)c(C(=O)Nc5c(F)cccc5F)c4)nc4ccccn34)n2)c(OC)cc1N1CCC(N2CCN(S(C)(=O)=O)CC2)CC1
Description: surviving fraction relative to DMSO-only wells; higher = less growth inhibition. The following applies: exposure time: 5 days. In short, it runs like this: (§1)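 After seeding at 250–500 cells per well in 384-well plates and a 24-hour wait, log-phase tumour cell lines were exposed without interruption for five days to inhibitors at 0.5, 1, 5, 10, 50, 100, 500 and 1000 nM. CellTiter-Glo luminescence was recorded after 10 minutes at room temperature. Viability is reported as surviving fraction, the luminescence normalised to the median of DMSO-only wells.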

Compound in assay [2]: Cc1cn(-c2cc(NC(=O)c3ccc(C)c(Nc4nccc(-c5cccnc5)n4)c3)cc(C(F)(F)F)c2)cn1 [NILOTINIB]
The assay is described as above. The conditions noted are these: exposure time: 5 days. In short, it runs like this:
as §1

Turning to SJSA1 BONE, the surviving fraction worked out at 1.03 ± 0.038 in assay [1] (0.5 nM); 0.99 ± 0.056 in assay [1] (1 nM); 1.08 ± 0.066 in assay [1] (5 nM); 1.1 ± 0.065 in assay [1] (10 nM); 1.07 ± 0.013 in assay [1] (50 nM); 1.09 ± 0.024 in assay [1] (100 nM). Moreover, the surviving fraction in assay [1] (500 nM) amounted to 1.03 ± 0.056; in assay [1] (1000 nM), 1.03 ± 0.013; in assay [2] (0.5 nM), 1.73 ± 0.13; in assay [2] (1 nM), 1.67 ± 0.1; in assay [2] (5 nM), 1.65 ± 0.08; in assay [2] (10 nM), 1.802 ± 0.014. Besides, the surviving fraction was 1.56 ± 0.1 in assay [2] (50 nM), 1.69 ± 0.04 in assay [2] (100 nM), 1.63 ± 0.074 in assay [2] (500 nM) and 1.77 ± 0.044 in assay [2] (1000 nM).

Consider HCT15 LARGE INTESTINE, for which the surviving fraction in assay [1] (0.5 nM) was 0.963 ± 0.028; in assay [1] (1 nM), 0.995 ± 0.028; in assay [1] (5 nM), 0.99 ± 0.027; in assay [1] (10 nM), 1.03 ± 0.03; in assay [1] (50 nM), 1 ± 0.02; in assay [1] (100 nM), 1.05 ± 0.016. The surviving fraction in assay [1] (500 nM) came to 1.12 ± 0.036; in assay [1] (1000 nM), 1.06 ± 0.017; in assay [2] (0.5 nM), 1.05 ± 0.082; in assay [2] (1 nM) it was 1.01 ± 0.071; in assay [2] (5 nM), 1.07 ± 0.12; in assay [2] (10 nM) it was 1.09 ± 0.12. Further, the surviving fraction in assay [2] (50 nM) came out at 1.09 ± 0.1; in assay [2] (100 nM) it was 1.12 ± 0.037; in assay [2] (500 nM) it was 1.05 ± 0.11; in assay [2] (1000 nM), 1.06 ± 0.091.

As to SG32 HEADNECK, the surviving fraction is 1.07 ± 0.22 in assay [1] (0.5 nM); 1.11 ± 0.026 in assay [1] (1 nM); 1.15 ± 0.089 in assay [1] (5 nM); 1.17 ± 0.15 in assay [1] (10 nM); 1.15 ± 0.23 in assay [1] (50 nM); 1.21 ± 0.1 in assay [1] (100 nM). Also, the surviving fraction in assay [1] (500 nM) was found to be 1.6 ± 0.59; in assay [1] (1000 nM), 1.15 ± 0.017; in assay [2] (0.5 nM) it was 0.984 ± 0.025; in assay [2] (1 nM), 0.986 ± 0.062; in assay [2] (5 nM), 1.16 ± 0.12; in assay [2] (10 nM) it was 1.24 ± 0.26. Besides, the surviving fraction was 0.823 ± 0.21 in assay [2] (50 nM), 0.864 ± 0.16 in assay [2] (100 nM), 0.866 ± 0.039 in assay [2] (500 nM) and 0.834 ± 0.12 in assay [2] (1000 nM).

For CADOES1 SOFT TISSUE, the surviving fraction in assay [1] (0.5 nM) came to 0.983 ± 0.048; in assay [1] (1 nM), 0.983 ± 0.065; in assay [1] (5 nM) it was 0.892 ± 0.12; in assay [1] (10 nM), 0.885 ± 0.04; in assay [1] (50 nM) it was 0.87 ± 0.1; in assay [1] (100 nM), 1.05 ± 0.12. Besides, the surviving fraction in assay [1] (500 nM) amounted to 1.06 ± 0.12; in assay [1] (1000 nM) it was 1.08 ± 0.042; in assay [2] (0.5 nM), 1.02 ± 0.17; in assay [2] (1 nM), 0.987 ± 0.05; in assay [2] (5 nM) it was 1.01 ± 0.13; in assay [2] (10 nM), 0.93 ± 0.071. In addition, the surviving fraction stood at 0.932 ± 0.13 in assay [2] (50 nM), 1.02 ± 0.045 in assay [2] (100 nM), 0.963 ± 0.055 in assay [2] (500 nM) and 1.01 ± 0.057 in assay [2] (1000 nM).

For CME SYNOVIAL, the surviving fraction stood at 1.4 ± 0.11 in assay [1] (0.5 nM); 1.39 ± 0.21 in assay [1] (1 nM); 1.39 ± 0.19 in assay [1] (5 nM); 1.23 ± 0.05 in assay [1] (10 nM); 1.36 ± 0.22 in assay [1] (50 nM); 1.31 ± 0.089 in assay [1] (100 nM). For the same test system, the surviving fraction in assay [1] (500 nM) worked out at 0.913 ± 0.11; in assay [1] (1000 nM), 0.507 ± 0.034; in assay [2] (0.5 nM) it was 1.17 ± 0.064; in assay [2] (1 nM) it was 1.15 ± 0.24; in assay [2] (5 nM), 1.31 ± 0.15; in assay [2] (10 nM), 1.21 ± 0.091. Also, the surviving fraction was 1.1 ± 0.12 in assay [2] (50 nM), 1 ± 0.099 in assay [2] (100 nM), 0.926 ± 0.11 in assay [2] (500 nM) and 0.483 ± 0.026 in assay [2] (1000 nM).

Regarding HCC1806 BREAST, the surviving fraction came to 1.05 ± 0.032 in assay [1] (0.5 nM); 0.985 ± 0.042 in assay [1] (1 nM); 1.04 ± 0.025 in assay [1] (5 nM); 1.05 ± 0.1 in assay [1] (10 nM); 0.993 ± 0.1 in assay [1] (50 nM); 1.03 ± 0.13 in assay [1] (100 nM). Also, the surviving fraction was found to be 0.93 ± 0.13 in assay [1] (500 nM); 0.904 ± 0.085 in assay [1] (1000 nM); 0.977 ± 0.016 in assay [2] (0.5 nM); 0.97 ± 0.048 in assay [2] (1 nM); 1.1 ± 0.14 in assay [2] (5 nM); 1.02 ± 0.067 in assay [2] (10 nM). In addition, the surviving fraction in assay [2] (50 nM) came to 0.844 ± 0.088; in assay [2] (100 nM) it was 0.755 ± 0.083; in assay [2] (500 nM), 0.666 ± 0.044; in assay [2] (1000 nM), 0.781 ± 0.026.

With MDAMB361 BREAST, the surviving fraction amounted to 0.885 ± 0.088 in assay [1] (0.5 nM); 0.947 ± 0.053 in assay [1] (1 nM); 1.04 ± 0.051 in assay [1] (5 nM); 0.887 ± 0.052 in assay [1] (10 nM); 0.879 ± 0.044 in assay [1] (50 nM); 0.998 ± 0.045 in assay [1] (100 nM). Further, the surviving fraction was 0.826 ± 0.041 in assay [1] (500 nM); 0.726 ± 0.064 in assay [1] (1000 nM); 0.632 ± 0.033 in assay [2] (0.5 nM); 0.953 ± 0.057 in assay [2] (1 nM); 0.69 ± 0.11 in assay [2] (5 nM); 0.743 ± 0.06 in assay [2] (10 nM). Besides, the surviving fraction was 0.533 ± 0.078 in assay [2] (50 nM), 0.601 ± 0.059 in assay [2] (100 nM), 0.619 ± 0.02 in assay [2] (500 nM) and 0.539 ± 0.1 in assay [2] (1000 nM).
